In patent US20200376287A1, “METHODS FOR INCREASING TGF-B SIGNALING” (TECHNION RESEARCH & DEVELOPMENT FOUNDATION LIMITED, priority 2019, published 2020):

Tested on: neurons in the mid-posterior insular cortex (mpIC)
Assay: Arc expression in the mpIC of Arc-dVenus reporter mice after oral consumption
Format: in vivo
Settings: for response of neurons in the mpIC (Arc expression) to oral consumption: Arc-dVenus reporter mice, compared with water
Procedure: The expression of Arc was evaluated by immunohistochemical staining for GFP (green) to amplify the signal of dVenus and co-localized with DAPI nuclear staining (blue). Dotted lines are based on Allen Brain Atlas and depict the cytoarchitectonic layers of the insular cortex (granular insula; GI, dysgranular insula; DI, agranular insula; AI) and the claustrum (CI). Scale bar, 200 μm. (1B) A graph showing manual quantification of Arc-positive cells that were identified by GFP and DAPI double-positive staining per region of interest (ROI=[…]) in mice that were exposed to water or OVA. Student's t-test; mean±s.e.m; n=3, 4; **P<0.01. (1C) Maps showing the location of the insular cortex in mice (upper left). Arc-expressing neurons following oral consumption of OVA were found in the mid-posterior region of the insula (upper right) that comprises both gustatory and visceral cortices (lower panel). (1D) A location map and micrographs showing validation of the injection site in the mpIC. Representative image describing the expression of the inhibiting form of designer receptors exclusively activated by designer drugs (DREADDs; Gi) in neurons following stereotactic injection of a viral vector (AAV8-hSyn-hM4Di (Gi)-mCherry), in the GI and DI layers of the mpIC ((0.14-0.18) mm Anterior-Posterior (AP); (3.6-3.8) mm Medial-Lateral (ML); (2.5-2.6) mm Dorsal-Ventral (DV)).
FIGS. 5A-5F include fluorescent micrographs, graphs, and location maps, showing representation of aversive information in the mpIC. […] The expression of Arc was evaluated as described in FIG. 1A. Dotted lines are based on Allen Brain Atlas, and depict the cytoarchitectonic layers of the insular cortex (granular insula; GI, dysgranular insula; DI, agranular insula; AI) and the claustrum (CI). Scale bar, 200 μm. (5B) Manual quantification of Arc-positive cells in the region of interest (ROI=[…]) was performed as described in FIG. 1A in mice that consumed water or denatonium benzoate. Student's t-test; mean±s.e.m; n=3, 5; *P<0.05. (5C) The images show Arc expression in the mpIC of Arc-dVenus reporter mice that were exposed to OVA (left panel) or denatonium benzoate (right panel). The numbers (1-6) represent the layers of the cerebral cortex. Scale bar, 200 μm. (5D) Graphs represent the difference in total Arc expression (left) and the distribution of Arc-positive cells in the 3 cytoarchitectonic layers of the insular cortex (GI, DI, and AI) following exposure of mice to OVA or denatonium benzoate. […] (5F) Graphs depict the total difference in Arc-positive cells in the ⅔ layer of the cerebral cortex (left) of the mpIC and expression of Arc in this layer divided by the insular layers (GI, DI, and AI). Student's t-test; mean±s.e.m; n=3, 5; *P<0.05, **P<0.01.
Thus far, the inventors exposed the mice only to positive appetitive signals, however, whether the mpIC also responds to aversive information that can inform about the presence of pathogens, left unclear. To answer this question the inventors used the Arc reporter mice, except this time they were exposed to the bitter substance denatonium benzoate.

Molecule	response of neurons in the mpIC (Arc expression) to oral consumption	Arc-positive cells in the granular layer (GI) of the mpIC (denatonium benzoate (bitter) compared to OVA)	total number of activated neurons in the mpIC (denatonium benzoate compared to OVA)	Arc expression in the AI layer of the mpIC (OVA-consuming mice compared to mice exposed to denatonium benzoate)
CC[N+](CC)(CC(=O)Nc1c(C)cccc1C)Cc1ccccc1 [denatonium benzoate]	neurons in the mpIC also respond	less Arc-positive cells	no significant difference	–
ovalbumin (protein, UniProt P01012 2-386, looked up, orally consumed novel innocuous food antigen) Ovalbumin: GSIGAASMEFCFDVFKELKVHHANENIFYCPIAIMSALAMVYLGAKDSTRTQINKVVRFDKLPGFGDSIEAQCGTSVNVHSSLRDILNQITKPNDVYSFSLASRLYAEERYPILPEYLQCVKELYRGGLEPINFQTAADQARELINSWVESQTNGIIRNVLQPSSVDSQTAMVLVNAIVFKGLWEKAFKDEDTQAMPFRVTEQESKPVQMMYQIGLFRVASMASEKMKILELPFASGTMSMLVLLPDEVSGLEQLESIINFEKLTEWTSSNVMEERKIKVYLPRMKMEEKYNLTSVLMAMGITDVFSSSANLSGISSAESLKISQAVHAAHAEINEAGREVVGSAEAGVDAASVSEEFRADHPFLFCIKHIATNAVLFFGRCVSP	respond to oral consumption of OVA	–	–	lower expression
